How the values were obtained:
[1] = molecular target: Fibroblast growth factor receptor 1 (Homo sapiens, UniProt P11362); experiment: Inhibition of recombinant human His-tagged FGFR1 (308 to 731 residues) expressed in baculovirus expression system using tyrosine-4 peptide as substrate incubated for 1 hr by Z'-LYTE assay
[2] = molecular target: Proto-oncogene tyrosine-protein kinase Src (Homo sapiens, UniProt P12931); experiment: Inhibition of recombinant human His-tagged full length SRC expressed in baculovirus expression system using tyrosine-2 peptide as substrate incubated for 1 hr by Z'-LYTE assay
[3] = molecular target: T1, Mitogen-activated protein kinase kinase kinase 7 (Homo sapiens, UniProt O43318); experiment: Inhibition of tracer 222 binding to recombinant human His-tagged TAK1 (437 to 504 residues) expressed in baculovirus expression system […] incubated for 60 mins by Lanthascreen assay
T1 sequence (O43318 whole entry): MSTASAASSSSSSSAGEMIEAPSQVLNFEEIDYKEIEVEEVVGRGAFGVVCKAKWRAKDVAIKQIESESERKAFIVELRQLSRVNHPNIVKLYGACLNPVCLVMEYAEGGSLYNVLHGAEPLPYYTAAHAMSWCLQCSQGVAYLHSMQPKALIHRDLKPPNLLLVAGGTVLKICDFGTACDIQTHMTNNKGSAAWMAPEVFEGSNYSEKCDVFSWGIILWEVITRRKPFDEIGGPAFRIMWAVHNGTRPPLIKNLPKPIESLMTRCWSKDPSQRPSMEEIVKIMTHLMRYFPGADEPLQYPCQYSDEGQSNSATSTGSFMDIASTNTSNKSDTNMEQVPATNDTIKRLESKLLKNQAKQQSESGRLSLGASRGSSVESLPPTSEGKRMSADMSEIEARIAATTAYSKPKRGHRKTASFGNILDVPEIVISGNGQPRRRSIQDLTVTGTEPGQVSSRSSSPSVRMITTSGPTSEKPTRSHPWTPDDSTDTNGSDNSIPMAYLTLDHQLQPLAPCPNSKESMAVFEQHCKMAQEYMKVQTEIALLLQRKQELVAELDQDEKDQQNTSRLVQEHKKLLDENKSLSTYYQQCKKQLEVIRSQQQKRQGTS

Chain of Proto-oncogene tyrosine-protein kinase Src (P12931 2-536 limits assumed): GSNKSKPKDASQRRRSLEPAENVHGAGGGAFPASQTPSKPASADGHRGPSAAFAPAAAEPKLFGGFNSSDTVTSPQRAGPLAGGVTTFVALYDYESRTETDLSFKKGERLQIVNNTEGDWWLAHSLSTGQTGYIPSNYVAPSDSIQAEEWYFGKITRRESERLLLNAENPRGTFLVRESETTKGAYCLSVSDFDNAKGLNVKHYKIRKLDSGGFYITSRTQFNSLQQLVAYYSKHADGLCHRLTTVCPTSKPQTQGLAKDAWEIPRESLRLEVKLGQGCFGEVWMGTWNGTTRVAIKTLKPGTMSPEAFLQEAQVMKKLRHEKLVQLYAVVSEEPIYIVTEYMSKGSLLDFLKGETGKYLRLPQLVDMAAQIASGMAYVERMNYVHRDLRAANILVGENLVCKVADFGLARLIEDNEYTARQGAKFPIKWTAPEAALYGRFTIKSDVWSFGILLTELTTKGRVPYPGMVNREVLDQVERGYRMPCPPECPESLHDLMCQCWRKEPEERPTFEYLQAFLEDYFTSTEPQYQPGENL
Chain of Fibroblast growth factor receptor 1 (P11362 whole entry, the tested form may be a part): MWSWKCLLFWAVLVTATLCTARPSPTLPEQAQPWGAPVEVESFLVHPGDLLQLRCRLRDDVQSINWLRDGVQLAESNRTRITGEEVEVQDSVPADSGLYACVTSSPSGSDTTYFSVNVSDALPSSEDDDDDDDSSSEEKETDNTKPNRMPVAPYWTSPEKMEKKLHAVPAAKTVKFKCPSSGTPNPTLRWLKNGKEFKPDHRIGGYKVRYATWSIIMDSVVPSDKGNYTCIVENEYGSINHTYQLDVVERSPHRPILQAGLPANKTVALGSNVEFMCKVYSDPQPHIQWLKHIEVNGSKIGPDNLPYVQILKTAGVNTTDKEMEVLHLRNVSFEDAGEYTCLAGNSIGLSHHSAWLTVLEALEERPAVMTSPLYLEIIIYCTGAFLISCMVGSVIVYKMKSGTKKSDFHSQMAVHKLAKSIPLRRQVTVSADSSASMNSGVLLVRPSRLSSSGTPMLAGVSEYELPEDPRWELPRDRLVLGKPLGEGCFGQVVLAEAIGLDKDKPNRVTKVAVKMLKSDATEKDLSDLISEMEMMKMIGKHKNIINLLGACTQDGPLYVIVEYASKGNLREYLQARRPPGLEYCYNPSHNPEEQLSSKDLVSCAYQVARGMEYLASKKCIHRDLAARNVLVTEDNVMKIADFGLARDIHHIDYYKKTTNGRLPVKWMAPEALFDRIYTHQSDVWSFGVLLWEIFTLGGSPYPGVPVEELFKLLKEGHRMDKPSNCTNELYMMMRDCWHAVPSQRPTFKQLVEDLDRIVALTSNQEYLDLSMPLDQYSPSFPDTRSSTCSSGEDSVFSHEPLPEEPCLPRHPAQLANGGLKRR

Row | Structure (SMILES) | IC50 [1] | IC50 [2] | IC50 [3]
1 | C=CC(=O)Nc1ccccc1Nc1nc(Nc2ccc(N3CCN(C)CC3)cc2)ncc1C(=O)Nc1cc(OC)c(OC)cc1C | 6710 nM |  | 
2 | C=CC(=O)Nc1ccccc1Nc1nc(Nc2ccc(N3CCN(C)CC3)cc2)ncc1Cl | 54 nM | 4 nM | 
3 | C=CC(=O)Nc1ccccc1Nc1nc(Nc2ccc(N3CCN(C)CC3)cc2)ncc1C(=O)Nc1c(Cl)c(OC)cc(OC)c1Cl | 391 nM |  | 
4 | C=CC(=O)Nc1ccccc1Nc1nc(Nc2ccc(N3CCN(C)CC3)cc2)ncc1C(=O)Nc1c(C)cc(Cl)cc1Cl | > 10000 nM |  | 
5 | C=CC(=O)Nc1ccccc1Nc1nc(Nc2ccc(N3CCN(C)CC3)cc2)ncc1C(=O)Nc1ccc(Oc2ccccc2)cc1 | > 10000 nM | > 3330 nM | 
6 | C=CC(=O)Nc1ccccc1Nc1nc(Nc2ccc(N3CCN(C)CC3)cc2)ncc1C(=O)Nc1c(C)cc(C#N)cc1Cl | > 10000 nM |  | 
7 | C=CC(=O)Nc1ccccc1Nc1nc(Nc2ccc(N3CCN(C)CC3)cc2)ncc1-c1ccoc1 | 12 nM | 2 nM | 224 nM
8 | C=CC(=O)Nc1ccccc1Nc1nc(Nc2ccc(N3CCN(C)CC3)cc2)ncc1OCc1c(C)cccc1Cl | 373 nM | 3 nM | 
9 | C=CC(=O)Nc1ccccc1Nc1nc(Nc2ccc(N3CCN(C)CC3)cc2)ncc1OCc1ccc(C)cc1 | 119 nM | 5 nM | 
10 | C=CC(=O)Nc1ccccc1Nc1nc(Nc2ccc(N3CCN(C)CC3)cc2)ncc1C(=O)Nc1c(C)cc(C)cc1Cl | > 3330 nM |  | 
11 | C=CC(=O)Nc1ccccc1Nc1nc(Nc2ccc(N3CCN(C)CC3)cc2)ncc1-c1ccc(C(C)=O)cc1 | 72 nM | 6 nM | 1490 nM
12 | C=CC(=O)Nc1ccccc1Nc1nc(Nc2ccc(N3CCN(C)CC3)cc2)ncc1-c1ccc(OC)nc1 | 20 nM | 6 nM | 1890 nM
13 | C=CC(=O)Nc1ccccc1Nc1nc(Nc2ccc(N3CCC(N4CCN(C)CC4)CC3)cc2)ncc1C(=O)Nc1c(C)cccc1Cl |  | > 10000 nM | 
14 | C=CC(=O)Nc1ccccc1Nc1nc(Nc2ccc(N3CCN(C)CC3)cc2)ncc1-c1ccc(Oc2ccccc2)cc1 | 89 nM | 5 nM | 5460 nM
15 | C=CC(=O)Nc1ccccc1Nc1nc(Nc2ccc(N3CCN(C)CC3)cc2)ncc1C(=O)Nc1cc(C)cc(Cl)c1 | > 10000 nM |  | 
16 | C=CC(=O)Nc1ccccc1Nc1nc(Nc2ccc(N3CCN(C)CC3)cc2)ncc1-c1cccs1 | 17 nM | 3 nM | 543 nM
17 | C=CC(=O)Nc1ccccc1Nc1nc(Nc2ccc(N3CCN(C)CC3)cc2)ncc1OCc1ccc(Oc2ccccc2)cc1 | 1050 nM | 6 nM | 
18 | C=CC(=O)Nc1ccccc1Nc1nc(Nc2ccc(N3CCN(C)CC3)cc2)ncc1C(=O)Nc1ccccc1CC | > 10000 nM |  | 
